± gives the uncertainty stated by the source.
Assay: xn = mol fraction of the nth substance listed
Details: 101 kPa

## Cl.N[C@@H](CS)C(=O)O.O + O
303.15 K, x1 = 0.01
  viscosity: 0.8529 ± 0.007 mPa·s
303.15 K, x1 = 0.0122
  viscosity: 0.9644 ± 0.048 mPa·s
303.15 K, x1 = 0.02
  viscosity: 1.126 ± 0.0089 mPa·s
303.15 K, x1 = 0.0272
  viscosity: 1.2 ± 0.058 mPa·s
303.15 K, x1 = 0.04
  viscosity: 1.506 ± 0.012 mPa·s
303.15 K, x1 = 0.0463
  viscosity: 1.591 ± 0.075 mPa·s
303.15 K, x1 = 0.0579
  viscosity: 1.877 ± 0.087 mPa·s
303.15 K, x1 = 0.0714
  viscosity: 2.27 ± 0.1 mPa·s
303.15 K, x1 = 0.08
  viscosity: 2.486 ± 0.018 mPa·s
303.15 K, x1 = 0.0871
  viscosity: 2.805 ± 0.13 mPa·s
303.15 K, x1 = 0.1
  viscosity: 3.391 ± 0.025 mPa·s
303.15 K, x1 = 0.1057
  viscosity: 3.602 ± 0.16 mPa·s
303.15 K, x1 = 0.11
  viscosity: 3.97 ± 0.029 mPa·s
303.15 K, x1 = 0.12
  viscosity: 4.627 ± 0.034 mPa·s
303.15 K, x1 = 0.1281
  viscosity: 5.207 ± 0.22 mPa·s
303.15 K, x1 = 0.13
  viscosity: 5.349 ± 0.039 mPa·s
303.15 K, x1 = 0.14
  viscosity: 6.119 ± 0.043 mPa·s
303.15 K, x1 = 0.15
  viscosity: 6.915 ± 0.047 mPa·s
303.15 K, x1 = 0.1558
  viscosity: 7.415 ± 0.29 mPa·s
303.15 K, x1 = 0.16
  viscosity: 7.706 ± 0.051 mPa·s
303.15 K, x1 = 0.17
  viscosity: 8.459 ± 0.055 mPa·s
303.15 K, x1 = 0.18
  viscosity: 9.134 ± 0.059 mPa·s
303.15 K, x1 = 0.19
  viscosity: 9.972 ± 0.064 mPa·s
303.15 K, x1 = 0.1903
  viscosity: 9.687 ± 0.36 mPa·s
308.15 K, x1 = 0.01
  viscosity: 0.7892 ± 0.0065 mPa·s
308.15 K, x1 = 0.02
  viscosity: 1.023 ± 0.0082 mPa·s
308.15 K, x1 = 0.04
  viscosity: 1.356 ± 0.01 mPa·s
308.15 K, x1 = 0.08
  viscosity: 2.237 ± 0.017 mPa·s
308.15 K, x1 = 0.1
  viscosity: 2.955 ± 0.022 mPa·s
308.15 K, x1 = 0.11
  viscosity: 3.387 ± 0.025 mPa·s
308.15 K, x1 = 0.12
  viscosity: 3.883 ± 0.029 mPa·s
308.15 K, x1 = 0.13
  viscosity: 4.451 ± 0.033 mPa·s
308.15 K, x1 = 0.14
  viscosity: 5.101 ± 0.037 mPa·s
308.15 K, x1 = 0.15
  viscosity: 5.842 ± 0.041 mPa·s
308.15 K, x1 = 0.16
  viscosity: 6.524 ± 0.045 mPa·s
308.15 K, x1 = 0.17
  viscosity: 7.218 ± 0.049 mPa·s
308.15 K, x1 = 0.18
  viscosity: 8.014 ± 0.053 mPa·s
308.15 K, x1 = 0.19
  viscosity: 8.826 ± 0.058 mPa·s
313.15 K, x1 = 0.01
  viscosity: 0.7275 ± 0.0061 mPa·s
313.15 K, x1 = 0.0122
  viscosity: 0.795 ± 0.041 mPa·s
313.15 K, x1 = 0.02
  viscosity: 0.9082 ± 0.0074 mPa·s
313.15 K, x1 = 0.0272
  viscosity: 0.9836 ± 0.049 mPa·s
313.15 K, x1 = 0.04
  viscosity: 1.273 ± 0.0099 mPa·s
313.15 K, x1 = 0.0463
  viscosity: 1.288 ± 0.062 mPa·s
313.15 K, x1 = 0.0579
  viscosity: 1.508 ± 0.071 mPa·s
313.15 K, x1 = 0.0714
  viscosity: 1.797 ± 0.083 mPa·s
313.15 K, x1 = 0.08
  viscosity: 1.968 ± 0.015 mPa·s
313.15 K, x1 = 0.0871
  viscosity: 2.191 ± 0.1 mPa·s
313.15 K, x1 = 0.1
  viscosity: 2.572 ± 0.019 mPa·s
313.15 K, x1 = 0.1057
  viscosity: 2.783 ± 0.13 mPa·s
313.15 K, x1 = 0.11
  viscosity: 2.951 ± 0.022 mPa·s
313.15 K, x1 = 0.12
  viscosity: 3.387 ± 0.025 mPa·s
313.15 K, x1 = 0.1281
  viscosity: 3.69 ± 0.16 mPa·s
313.15 K, x1 = 0.13
  viscosity: 3.878 ± 0.029 mPa·s
313.15 K, x1 = 0.14
  viscosity: 4.426 ± 0.033 mPa·s
313.15 K, x1 = 0.15
  viscosity: 5.027 ± 0.037 mPa·s
313.15 K, x1 = 0.1558
  viscosity: 5.463 ± 0.23 mPa·s
313.15 K, x1 = 0.16
  viscosity: 5.678 ± 0.041 mPa·s
313.15 K, x1 = 0.17
  viscosity: 6.372 ± 0.044 mPa·s
313.15 K, x1 = 0.18
  viscosity: 7.104 ± 0.049 mPa·s
313.15 K, x1 = 0.19
  viscosity: 7.864 ± 0.053 mPa·s
313.15 K, x1 = 0.1903
  viscosity: 7.875 ± 0.31 mPa·s
318.15 K, x1 = 0.01
  viscosity: 0.6712 ± 0.0057 mPa·s
318.15 K, x1 = 0.02
  viscosity: 0.8248 ± 0.0068 mPa·s
318.15 K, x1 = 0.04
  viscosity: 1.112 ± 0.0088 mPa·s
318.15 K, x1 = 0.08
  viscosity: 1.785 ± 0.014 mPa·s
318.15 K, x1 = 0.1
  viscosity: 2.293 ± 0.017 mPa·s
318.15 K, x1 = 0.11
  viscosity: 2.575 ± 0.019 mPa·s
318.15 K, x1 = 0.12
  viscosity: 2.93 ± 0.022 mPa·s
318.15 K, x1 = 0.13
  viscosity: 3.35 ± 0.025 mPa·s
318.15 K, x1 = 0.14
  viscosity: 3.833 ± 0.029 mPa·s
318.15 K, x1 = 0.15
  viscosity: 4.408 ± 0.033 mPa·s
318.15 K, x1 = 0.16
  viscosity: 5.017 ± 0.037 mPa·s
318.15 K, x1 = 0.17
  viscosity: 5.719 ± 0.041 mPa·s
318.15 K, x1 = 0.18
  viscosity: 6.301 ± 0.044 mPa·s
318.15 K, x1 = 0.19
  viscosity: 7.002 ± 0.048 mPa·s
323.15 K, x1 = 0.01
  viscosity: 0.6181 ± 0.0053 mPa·s
323.15 K, x1 = 0.0122
  viscosity: 0.6742 ± 0.035 mPa·s
323.15 K, x1 = 0.02
  viscosity: 0.769 ± 0.0064 mPa·s
323.15 K, x1 = 0.0272
  viscosity: 0.8276 ± 0.042 mPa·s
323.15 K, x1 = 0.04
  viscosity: 1.018 ± 0.0081 mPa·s
323.15 K, x1 = 0.0463
  viscosity: 1.084 ± 0.053 mPa·s
323.15 K, x1 = 0.0579
  viscosity: 1.244 ± 0.06 mPa·s
323.15 K, x1 = 0.0714
  viscosity: 1.49 ± 0.07 mPa·s
323.15 K, x1 = 0.08
  viscosity: 1.594 ± 0.012 mPa·s
323.15 K, x1 = 0.0871
  viscosity: 1.711 ± 0.08 mPa·s
323.15 K, x1 = 0.1
  viscosity: 2.048 ± 0.015 mPa·s
323.15 K, x1 = 0.1057
  viscosity: 2.239 ± 0.1 mPa·s
323.15 K, x1 = 0.11
  viscosity: 2.336 ± 0.018 mPa·s
323.15 K, x1 = 0.12
  viscosity: 2.67 ± 0.02 mPa·s
323.15 K, x1 = 0.1281
  viscosity: 2.906 ± 0.13 mPa·s
323.15 K, x1 = 0.13
  viscosity: 3.052 ± 0.023 mPa·s
323.15 K, x1 = 0.14
  viscosity: 3.483 ± 0.026 mPa·s
323.15 K, x1 = 0.15
  viscosity: 3.963 ± 0.029 mPa·s
323.15 K, x1 = 0.1558
  viscosity: 4.309 ± 0.19 mPa·s
323.15 K, x1 = 0.16
  viscosity: 4.492 ± 0.033 mPa·s
323.15 K, x1 = 0.17
  viscosity: 5.066 ± 0.037 mPa·s
323.15 K, x1 = 0.18
  viscosity: 5.685 ± 0.041 mPa·s
323.15 K, x1 = 0.19
  viscosity: 6.342 ± 0.044 mPa·s
323.15 K, x1 = 0.1903
  viscosity: 6.354 ± 0.26 mPa·s
